Measured values reported in patent US20180217128A1, “METHOD FOR MEASURING IN VIVO INHIBITION OF INTRACELLULAR RNASE” (NATIONAL INSTITUTE OF ADVANCED INDUSTRIAL SCIENCE AND …, priority 2015, published 2018).
Each block holds one compound with its values, some of them ahead of it.

Assays:
[1] = tested on: intracellular ribonuclease in HEK 293 cells; test: Evaluation of harmfulness to cells using fluorescently labeled double-stranded RNA (intracellular RNA degradation, FRET fluorescence); conditions: Mercury II Chrolide 100 ng/ml
Description: That is, the present inventors designed and prepared a double-stranded RNA comprising an RNA strand labeled with a fluorescent dye A that emits fluorescence, and an RNA strand labeled with a fluorescent dye B that quenches emission from a fluorescent dye in the vicinity thereof. When the double-stranded RNA is in a double-stranded state, the fluorescence is in a quenched state due to occurrence of fluorescence resonance energy transfer (FRET) (Non-patent Document 4) between the two kinds of fluorescent dyes.
[…] After mixing, each reaction liquid was incubated at room temperature for 20 minutes, and then added to HEK 293 cells (2×10^5 cells/ml in 96 well plate), which are human cells. From Hour 0 to Hour 8, fluorescence was measured at 519 nm with excitation at 488 nm using a Microplate Reader SH-9000 (Corona Electric) at one-hour intervals. The experiment was carried out for n=3.
The result obtained by dividing the fluorescence values at Hours 1 to 8 by the fluorescence value at Hour 0 is shown in FIG. 5.
As reaction liquids, systems each containing 50 μL of Opti-MEM (Life Technologies), 1 μL of Lipofectamine 2000 (Life Technologies), 200 nM double-stranded RNA (the same RNA as in Example 1), and 0 ng/ml, 1 ng/ml, 100 ng/ml, or 100 μg/ml Cisplatin (Wako) were provided. […]

HEK 293 cells = conditions: hydrogen peroxide 0.01, 1 or 100 μM, measured at Hour 2, 4, 6, 8, n=3
Procedure: The viable cell count was determined by the absorbance using a Cell Counting Kit-8 (Dojindo).
The cell systems at Hour 2, 4, 6, and 8 were subjected to measurement of the absorbance at 450 nm using a Cell Counting Kit-8 (Dojindo) and a Microplate Reader SH-9000 (Corona Electric) to determine the viable cell count. The experiment was carried out for n=3.

[2] = target: T1, Ribonuclease (DNase free) Solution (ribonuclease; RNase) (Bos taurus, UniProt P61823); conditions: 100 μM hydrogen peroxide
T1 sequence (P61823 27-150): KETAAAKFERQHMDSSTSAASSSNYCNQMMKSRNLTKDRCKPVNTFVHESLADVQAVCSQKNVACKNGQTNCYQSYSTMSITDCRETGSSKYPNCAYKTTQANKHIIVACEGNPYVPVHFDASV
Procedure: In this experiment, how hydrogen peroxide influences the fluorescently labeled double-stranded RNA and a Ribonuclease (DNase free) Solution (ribonuclease; RNase) (Nippon Gene) was investigated.
A reaction liquid containing 200 nM double-stranded RNA in Opti-MEM (Life Technologies) (50 μL) was provided, and fluorescence was measured at 519 nm with excitation at 488 nm using a Microplate Reader SH-9000 (Corona Electric) (the result at Hour 0). Thereafter, systems in each of which hydrogen peroxide was added at 0 or 100 μM, and Ribonuclease (DNase free) Solution (ribonuclease; RNase) (Nippon Gene) was added at 0 or 0.4 mg/ml, were provided, and each system was incubated at room temperature for 1, 2, or 4 hours, followed by measurement of fluorescence at 519 nm with excitation at 488 nm using a Microplate Reader SH-9000 (the result at Hour 1, 2, or 4). The experiment was carried out for n=3.
The result obtained by dividing the fluorescence value at Hour 1, 2, or 4 by the fluorescence value at Hour 0 is shown in FIG. 4.

[3] = target: T1, Ribonuclease (DNase free) Solution (ribonuclease; RNase); test: Degradation of the fluorescently labeled double-stranded RNA (FRET probe) by ribonuclease, cell-free; assay type: biochemical; set-up: purchased Nippon Gene; conditions: 200 nM double-stranded RNA in Opti-MEM, 0.4 mg/ml RNase, room temperature 1 hour, vs no RNase, n=3
Description: First, FRET-Alexa-RNA: 5′-(Alexa Flour 488)-[…]-3′ (SEQ ID NO: 1) as a reporter strand, and FRET-BHQ1-RNA: (5′-[…]-(BHQ1)-3′ (SEQ ID NO:2) as a quencher strand were provided. The base at the 5′ end of the reporter strand is labeled with Alexa Flour 488 through a C6 linker, and the base at the 3′ end of the quencher strand is labeled with BHQ1 (Black Hole Quencher 1) without use of a linker (FIG. 2).
The reporter strand and the quencher strand were mixed at a ratio of 1:2 (molar ratio) in a solution of 50 mM HEPES, 500 mM KCl, and 25 mM MgCl2, and the resulting solution was incubated at 99° C. for 5 minutes, at 65° C. for 30 minutes, and then at 25° C. for 30 minutes to prepare a double-stranded RNA.
The experiment was carried out for n=3.

Compound: [Cl][Hg][Cl] [Mercury II Chrolide]
- concentration dependence of the suppression of the fluorescence increase ([1]; 10 μg/ml or 1 mg/ml): dependent on the Mercury II Chrolide concentration
- increase in the fluorescence value with time (Hours 1 to 8 divided by Hour 0) ([1]; 10 μg/ml or 1 mg/ml vs 0 ng/ml, Hour 0 to 8, n=3): suppressed

- time at which a decrease in the absorbance (relative to 0 μM taken as 1) was first found (HEK 293 cells): 8 h
- fluorescence value (Hour 1, 2 or 4 divided by Hour 0) of system with RNase, compared with RNase system ([2]; 200 nM double-stranded RNA, 0.4 mg/ml RNase, room temperature, n=3): almost the same
- fluorescence value (Hour 1, 2 or 4 divided by Hour 0) of system without RNase, vs system with neither RNase nor hydrogen peroxide ([2]; 200 nM double-stranded RNA, no RNase, room temperature, n=3): almost the same
Compound: OO [hydrogen peroxide]
- influence on fluorescence value of the RNA FRET Probe and on RNase activity (cell-free) ([2]; cell-free, 1-4 hours): influences neither the fluorescence value of the RNA FRET Probe nor the RNase activity

Compound: fluorescently labeled double-stranded RNA: Double-stranded RNA of FRET-Alexa-RNA reporter strand (SEQ ID NO: 1, Alexa Flour 488) and FRET-BHQ1-RNA quencher strand (SEQ ID NO: 2) (sense CAUAAUCCACCUCCCACUAUUCC; antisense GGAAUAGUGGGAGGUGGAUUAUG; RNA, backbone not given here; Alexa Fluor 488 on reporter, BHQ1 on quencher)
- fluorescence intensity (fluorescence value at Hour 1 divided by value at Hour 0) on addition of RNase [3]: obviously increased
